# Reference: patent US20180371044A1, “PEPTIDOMIMETIC MACROCYCLES” (Aileron Therapeutics, Inc., priority 2015, published 2018)
# Where a SMILES comes first, the peptide text is derived from it. Bridges are numbered along the chain shown (N, C = ends). [ ]: non-standard residue; d: D form. NMeY = CN[C@@H](Cc1ccc(O)cc1)C(=O)O; R8 = C=CCCCCCC[C@@](C)(N)C(=O)O; S5 = C=CCCC[C@](C)(N)C(=O)O; Nle = CCCC[C@H](N)C(=O)O
# Target: T1, human GHRH receptor (hGHRHR) (Homo sapiens, UniProt Q02643)
# T1 construct: expressed in transfected cells; host or cells: Human 293 cells
# T1 sequence (Q02643 23-423): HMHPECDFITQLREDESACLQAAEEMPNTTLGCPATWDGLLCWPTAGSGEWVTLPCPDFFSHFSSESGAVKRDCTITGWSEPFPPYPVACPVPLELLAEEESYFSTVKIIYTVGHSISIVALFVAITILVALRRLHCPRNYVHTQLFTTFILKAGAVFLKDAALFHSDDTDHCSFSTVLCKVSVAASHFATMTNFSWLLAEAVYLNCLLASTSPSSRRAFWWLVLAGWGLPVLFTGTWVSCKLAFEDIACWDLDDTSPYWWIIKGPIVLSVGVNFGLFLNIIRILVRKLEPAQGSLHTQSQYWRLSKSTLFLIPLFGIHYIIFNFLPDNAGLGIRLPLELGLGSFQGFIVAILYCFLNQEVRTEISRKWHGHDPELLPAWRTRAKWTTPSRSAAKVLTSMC
# Experiment: GHRHR agonism measured by cAMP (HTRF) in human 293 cells expressing hGHRHR;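 also: receptor expressed transiently or stably, cells stimulated in serum-free medium, EC50 from a non-linear dose-response fit, maximal response defined by reference GHRH stimulation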
# Type: cell-based
# Details: 30 min at RT
# Method: GHRH (1-29) and cross-linked peptidomimetic macrocycles were tested for agonism at the human GHRH receptor (hGHRHR) at various concentrations. Human 293 cells transiently or stably expressing hGHRHR were detached from cell culture flasks with versene (Life Technologies™), suspended in serum-free medium (50 k cells/assay point), and stimulated for 30 min at RT with GHRH (1-29) (Bachem™) or cross-linked peptidomimetic macrocycles. cAMP was quantified using an HTRF®-based assay (CisBio) and used according to the manufacturer's instructions. An EC50 for each agonist was calculated from a non-linear fit of response vs dose (GraphPad™ Prism). The maximum response was determined by stimulating with 10 μM GHRH (1-29). (+=>50 nm; ++=>25-50 nm; +++=>10-25 nm; ++++=>1-10 nm; +++++=≤1 nm).
row,EC50,SMILES
1,1 to 10 nM,CCCC[C@H](NC(=O)[C@@H](NC(=O)[C@]1(C)CCCC=CCCCCCC[C@@](C)(NC(=O)[C@H](CC(C)C)NC(=O)[C@H](CCC(N)=O)NC(=O)[C@H](C)NC(=O)[C@H](CC(C)C)NC(=O)[C@@H](NC(=O)[C@H](CCCCN)NC(=O)[C@H](CCCNC(=N)N)NC(=O)[C@H](Cc2ccc(O)cc2)NC(=O)[C@H](CO)NC(=O)[C@H](C)NC(=O)[C@@H](NC(=O)[C@H](Cc2ccccc2)NC(=O)[C@@H](NC(=O)[C@H](C)NC(=O)[C@H](CC(=O)O)NC(=O)[C@H](C)NC(=O)[C@H](Cc2ccc(O)cc2)NC)[C@@H](C)CC)[C@@H](C)O)C(C)C)C(=O)N[C@@H](C)C(=O)N[C@@H](CCCNC(=N)N)C(=O)N[C@@H](CCCCN)C(=O)N[C@@H](C)C(=O)N[C@@H](CC(C)C)C(=O)N[C@@H](CCC(N)=O)C(=O)N1)[C@@H](C)CC)C(=O)N[C@@H](CO)C(=O)N[C@@H](CCCNC(=N)N)C(N)=O [SP-30] (H-[NMeY]ADAIFTASYRKVLAQL[R8]ARKALQ[S5]I[Nle]SR-NH2; staple 18-25)
2,≤ 1 nM,CCCC[C@H](NC(=O)[C@@H](NC(=O)[C@H](CC(=O)O)NC(=O)[C@H](CCC(N)=O)NC(=O)[C@H](CC(C)C)NC(=O)[C@H](C)NC(=O)[C@H](CCCCN)NC(=O)[C@H](CCCNC(=N)N)NC(=O)[C@H](C)NC(=O)[C@H](CO)NC(=O)[C@H](CC(C)C)NC(=O)[C@H](CCC(N)=O)NC(=O)[C@H](C)NC(=O)[C@H](CC(C)C)NC(=O)[C@@H](NC(=O)[C@H](CCCCN)NC(=O)[C@H](CCCNC(=N)N)NC(=O)[C@H](Cc1ccc(O)cc1)NC(=O)[C@H](CO)NC(=O)[C@H](C)NC(=O)[C@@H](NC(=O)[C@H](Cc1ccccc1)NC(=O)[C@@H](NC(=O)[C@H](C)NC(=O)[C@H](CC(=O)O)NC(=O)[C@H](C)NC(=O)[C@H](Cc1ccc(O)cc1)NC)[C@@H](C)CC)[C@@H](C)O)C(C)C)[C@@H](C)CC)C(=O)N[C@@H](CO)C(=O)N[C@@H](CCCNC(=N)N)C(N)=O [SP-35] (H-[NMeY]ADAIFTASYRKVLAQLSARKALQDI[Nle]SR-NH2)
3,1 to 10 nM,CCCC[C@H](NC(=O)[C@@H](NC(=O)[C@H](CC(=O)O)NC(=O)[C@H](CCC(N)=O)NC(=O)[C@H](CC(C)C)NC(=O)[C@H](C)NC(=O)[C@H](CCCCN)NC(=O)[C@H](CCCNC(=N)N)NC(=O)[C@H](C)NC(=O)[C@H](CO)NC(=O)[C@H](CC(C)C)NC(=O)[C@H](CCC(N)=O)NC(=O)[C@H](C)NC(=O)[C@H](CC(C)C)NC(=O)[C@@H](NC(=O)[C@H](CCCCN)NC(=O)[C@H](CCCNC(=N)N)NC(=O)[C@H](Cc1ccc(O)cc1)NC(=O)[C@H](CO)NC(=O)[C@H](C)NC(=O)[C@@H](NC(=O)[C@H](Cc1ccccc1)NC(=O)[C@@H](NC(=O)[C@H](C)NC(=O)[C@H](CC(=O)O)NC(=O)[C@H](C)NC(=O)[C@@H](N)Cc1ccc(O)cc1)[C@@H](C)CC)[C@@H](C)O)C(C)C)[C@@H](C)CC)C(=O)N[C@@H](CO)C(=O)N[C@@H](CCCNC(=N)N)C(N)=O [SP-36] (H-YADAIFTASYRKVLAQLSARKALQDI[Nle]SR-NH2)

row,SMILES,EC50
1,CCCC[C@H](NC(=O)[C@]1(C)CCCC=CCCCCCC[C@@](C)(NC(=O)[C@H](CO)NC(=O)[C@H](CC(C)C)NC(=O)[C@H](CCC(N)=O)NC(=O)[C@H](C)NC(=O)[C@H](CC(C)C)NC(=O)[C@@H](NC(=O)[C@H](CCCCN)NC(=O)[C@H](CCCNC(=N)N)NC(=O)[C@H](Cc2ccc(O)cc2)NC(=O)[C@H](CO)NC(=O)[C@H](C)NC(=O)[C@@H](NC(=O)[C@H](Cc2ccccc2)NC(=O)[C@@H](NC(=O)[C@H](C)NC(=O)[C@H](CC(=O)O)NC(=O)[C@H](C)NC(=O)[C@H](Cc2ccc(O)cc2)NC)[C@@H](C)CC)[C@@H](C)O)C(C)C)C(=O)N[C@@H](CCCNC(=N)N)C(=O)N[C@@H](CCCCN)C(=O)N[C@@H](C)C(=O)N[C@@H](CC(C)C)C(=O)N[C@@H](CCC(N)=O)C(=O)N[C@@H](CC(=O)O)C(=O)N1)C(=O)N[C@@H](CO)C(=O)N[C@@H](CCCNC(=N)N)C(N)=O [SP-31] (H-[NMeY]ADAIFTASYRKVLAQLS[R8]RKALQD[S5][Nle]SR-NH2; staple 19-26),1 to 10 nM
